Where a SMILES comes first, the peptide text is derived from it. Bridges are numbered along the chain shown (N, C = ends). [ ]: non-standard residue; d: D form. Phe(ol) = N[C@H](CO)Cc1ccccc1; Aib = CC(C)(N)C(=O)O
Columns and labels:
E. coli = assay: Permeabilization of bacterial membranes (SYTOX-Green); assay type: cell-based, Escherichia coli; settings: Gram-negative E. coli, pH 7.4, measured 120 minutes after addition
Method: (§1) FIG. 3 presents the permeabilization of Gram-positive bacteria (Bacillus megaterium) and Gram-negative bacteria (Escherichia coli) after intended use of the Alvinellacine and two other AMPs (Cecropin originated from pork and Magainin originated from amphibian). These experiences were carried out at pH 7.4. The permeabilization of bacteria was measured 10 minutes after addition of each AMP for B. megaterium, while the same measurement was done after 120 minutes after addition of each AMP for E. coli.
(§2) The minimal inhibitory concentration (MIC) was determined according to the method of Hancock (Hancock, R. E. W. Sep. 19, 1999, posting date. [Online.] Hancock Laboratory Methods. Department of Microbiology and Immunology, University of British Columbia, British Columbia, Canada. [Antibiotics and Antimicrobial Peptides: MIC Determination by Microtitre Broth Dilution Method, last accessed September 21st.]). […]
(§3) To investigate the mode of action of Alvinellacine, we used the fluorescent dye SYTOX-Green® and either the Gram-positive Bacillus megaterium or the Gram-negative E. coli (FIG. 3). […] We also measured the pore-forming activity of Alvinellacine to further characterize its mode of action by using a minimalistic membrane system. More precisely, we monitored the dissipation of a membrane potential induced in liposomes composed of azolectin, a crude phospho lipid mixture from soy bean. […]

[1] = Permeabilization of liposomes filled with a fluorescent reagent; settings: positive control Alamethicin
Method: FIG. 2 presents the ability of the Alvinellacine to create pores in liposomes, herein used to mimic bacterial membranes.
The mechanism of antibacterial activity was determined using liposomes filled with a fluorescent reagent. Liposomes consist of a bi-layer of phospholipids herein used to mimic the bacterial membrane. Permeabilization of the liposomes would result in a release of the internal compound, thus reacting with the medium and producing a fluorescent light that can be measured by spectrometry. The test is carried out with both negative and positive controls. Alamethicin, which is an antibiotic known to create pores in the bacterial membrane, is used as the positive control. The negative control is a solution of liposomes, intended for measurement of background noise (FIG. 2).

Bacillus megaterium = assay: Permeabilization of bacterial membranes (SYTOX-Green); assay type: cell-based; settings: Gram-positive Bacillus megaterium, pH 7.4, measured 10 minutes after addition
Method: as §1, §2, §3

[2] = Pore-forming activity: dissipation of a membrane potential in azolectin liposomes
Method: The minimal inhibitory concentration (MIC) was determined according to the method of Hancock (Hancock, R. E. W. Sep. 19, 1999, posting date. [Online.] Hancock Laboratory Methods. Department of Microbiology and Immunology, University of British Columbia, British Columbia, Canada. [Antibiotics and Antimicrobial Peptides: MIC Determination by Microtitre Broth Dilution Method, last accessed September 21st.]). Permeabilization of bacterial membranes and pore-forming activity were assayed as previously described (Herbst, R., Ott, C., Jacobs, T., Marti, T., Marciano-Cabral, F., Leippe, M. Pore-forming polypeptides of the pathogenic protozoon Naegleria fowleri. J. Biol. Chem. 2002. 277:22353-22360).
To investigate the mode of action of Alvinellacine, we used the fluorescent dye SYTOX-Green® and either the Gram-positive Bacillus megaterium or the Gram-negative E. coli (FIG. 3). […] We also measured the pore-forming activity of Alvinellacine to further characterize its mode of action by using a minimalistic membrane system. More precisely, we monitored the dissipation of a membrane potential induced in liposomes composed of azolectin, a crude phospho lipid mixture from soy bean. Pore-forming activity was detected at final concentrations up to 0.5 nM, whereas the positive control Alamethicine gave a signal at 0.1 nM.

Row | SMILES | membrane-permeabilizing activity compared with Cecropin P1 and Magainin II (E. coli) | permeabilization of liposomes (mechanism of antibacterial activity) [1] | membrane-permeabilizing activity compared with the two positive controls (Cecropin P1, Magainin II) (Bacillus megaterium) | final concentration at which pore-forming activity was detected [2]
1 | CSCC[C@@H]1NC(=O)[C@@H]2CSSC[C@H](NC(=O)[C@H](CCCNC(=N)N)NC(=O)[C@H]([C@@H](C)O)NC(=O)[C@H](Cc3ccc(O)cc3)NC(=O)[C@@H](NC(=O)CNC(=O)[C@@H](N)CCCNC(=N)N)CSSC[C@@H](C(=O)N[C@H](C(=O)O)[C@@H](C)O)NC(=O)[C@H](C(C)C)NC(=O)[C@H](CCCNC(=N)N)NC1=O)C(=O)N[C@@H](Cc1c[nH]c3ccccc13)C(=O)N[C@@H](CCCCN)C(=O)N[C@@H](C(C)C)C(=O)NCC(=O)N[C@@H](CCCNC(=N)N)C(=O)N[C@@H](CC(N)=O)C(=O)NCC(=O)N[C@@H](CCCNC(=N)N)C(=O)N[C@@H](C(C)C)C(=O)N2 [Alvinellacine] (H-RGCYTRCWKVGRNGRVCMRVCT-OH; disulfide 3-21, 7-17 (inferred); N-terminus and C-terminus assumed) | over one order of magnitude higher | permealibilizes the bi-layer of phospholipids | lower activity | up to 0.5 nM
2 | CC(=O)NC(C)(C)C(=O)N1CCC[C@H]1C(=O)NC(C)(C)C(=O)N[C@@H](C)C(=O)NC(C)(C)C(=O)N[C@@H](C)C(=O)N[C@@H](CCC(N)=O)C(=O)NC(C)(C)C(=O)N[C@H](C(=O)NC(C)(C)C(=O)NCC(=O)N[C@@H](CC(C)C)C(=O)NC(C)(C)C(=O)N1CCC[C@H]1C(=O)N[C@H](C(=O)NC(C)(C)C(=O)NC(C)(C)C(=O)N[C@@H](CCC(=O)O)C(=O)N[C@@H](CCC(N)=O)C(=O)N[C@H](CO)Cc1ccccc1)C(C)C)C(C)C [Alamethicine, Alamethicin, reference compound] (Ac-[Aib]P[Aib]A[Aib]AQ[Aib]V[Aib]GL[Aib]PV[Aib][Aib]EQ[Phe(ol)]) |  |  |  | 0.1 nM

Reference: patent US8652514B2, “Antimicrobial peptides” (priority 2009, dated 2014)
